Entries after “also recorded” stand apart in the source; their conditions may differ.
Legend:
[1] = tested on: human dermal fibroblasts; HDFs; assay: Real-time RT-PCR of Osteocalcin and Alkaline Phosphatase, Example 3; assay type: cell-based; settings: each compound 2 μM in calcification induction medium; day 24; FIG. 3
Description: The concentrations of the compounds are as follows: • D4476: 2 μM • SB431542: 2 μM • ALK5 inhibitor II: 2 μM.

[2] = tested on: human adipose derived stem cells; ADSC; settings: calcification induction medium added with ALK5 inhibitor II; day 19; FIG. 5
Description: (§1) The calcification induction medium is 10% FBS DMEM added with 50 μg/ml ascorbic acid, 10 mM β-glycerophosphate and 100 nM Dexamethasone. The culture medium was exchanged with a fresh one every 3-4 days, and culturing was performed until day 19.
(§2) On day 19, the culture medium was removed from each well by suction, washed with PBS(−), and fixed with 10% formalin. It was washed 3 times with sterile distilled water. Thereafter, Alizarin Red S staining solution was added, and the mixture was incubated at room temperature for 15 min.

[3] = tested on: human dermal fibroblasts; HDFs; settings: calcification induction medium added with ALK5 inhibitor II; day 19; FIG. 5
Description: as §1, §2

[4] = tested on: human dermal fibroblasts; HDFs; assay: Real-time RT-PCR of CIDEA, Example 13; assay type: cell-based; settings: compound 2 μM in addition to T3 1 nM and Rosiglitazone 1 μM, adipocyte induction medium; day 14; FIG. 13
Description: The concentrations of the additives are as follows: • T3: 1 nM • Rosiglitazone: 1 μM • D4476: 2 μM • Pifithrin alpha [p53 inhibitor]: 5 μM • SB431542: 2 μM • ALK5 Inhibitor II: 2 μM.

[5] = tested on: human dermal fibroblasts; HDFs; assay: Real-time RT-PCR of AdipoQ, Example 14; assay type: cell-based; settings: D4476, SB431542, ALK5 Inhibitor II 2 μM, PD0325901 1 μM, in addition to T3 and Rosiglitazone; day 14; FIG. 14
Description: The concentrations of the additives are as follows: • T3: 1 nM • Rosiglitazone: 1 μM • D4476: 2 μM. • Pifithrin alpha [p53 inhibitor]: 5 μM • PD0325901: 1 μM • SB431542: 2 μM • ALK5 Inhibitor II: 2 μM.

[6] = tested on: Human normal skin-derived fibroblasts (HDFs); assay: Real-time RT-PCR of ALP, Osteocalcin, Bonesialoprotein, Example 35; assay type: cell-based; settings: calcification induction medium added with ALK5 i II 4 μM; day 18; FIG. 39
Description: The concentrations of the small molecule compound or cytokine added are as follows. • ALK5 i II: 4 μM • 1α,25-dihydroxy Vitamin D3 (VD3): 5 nM • Human insulin-like growth factor-1 (IGF-1): 100 ng/ml.

[7] = tested on: Human normal skin-derived fibroblasts (HDFs); assay: Real-time RT-PCR of UCP1, four inhibitors, Example 39; assay type: cell-based
Description: The addition concentration of the compound was 4 μM, 8 μM, 12 μM or 16 μM. […] Thereafter, in Day 9-Day 14, culturing was performed in a medium free of ALK5 inhibitor II, LY2157299, SB431542, D4476.

[8] = tested on: Human normal skin-derived fibroblasts (HDFs); assay: Real-time RT-PCR of UCP1, CIDEA, KCNK3, Example 41; assay type: cell-based; settings: ALK5 inhibitor II or LY2157299 (8 μM), Day 1 to Day 8; day 14; FIG. 45
Description: Human normal skin-derived fibroblasts (HDFs) were suspended in a general medium (DMEM added with 10% FBS). […] The adipocyte induction medium is DMEM added with 1 nM T3, 1 μM Rosiglitazone, 0.5 mM 3-isobutyl-1-methylxanthine (IBMX), 0.5 μM dexamethasone, 1 μg/mL Insulin and 10% FBS. Once every 2 days, the culture medium was exchanged with a fresh one, and culturing was performed from Day 1 to Day 8. Thereafter, from Day 9 to Day 14, the cells were cultured in an adipocyte induction medium free of ALK5 inhibitor II or LY2157299. On day 14, the culture medium was removed by suction from each well, washed with PBS(−) and total RNA was extracted from the cells by using RNA easy Mini Kit manufactured by Qiagen. cDNA was synthesized from the RNA by using Rever Tra Ace qPCR RT Master Mix. This cDNA was admixed with Real-time PCR Master Mix, primers specific to UCP-1 gene, CIDEA gene, KCNK3 gene or β actin gene and Taqman probe. qRT-PCR was performed using AB7300 Real-time PCR system. The mRNA level of UCP1 gene was quantified as a ratio to β-actin gene mRNA, and calculated with the value of fibroblast cultured in the general medium as 1.

[9] = tested on: Human Epidermal Keratinocyte; NHEK (AD); settings: CnT-PR medium, 1 μM or 10 μM; day 21; FIG. 56
[10] = tested on: human dermal fibroblasts; HDFs; settings: 4 μM in calcification induction medium; day 18; FIG. 20
Description: The calcification induction medium is a 10% FBS DMEM added with 50 μg/ml ascorbic acid, 10 mM β-glycerophosphate and 100 nM Dexamethasone. The culture medium was exchanged with a fresh one every 3-4 days, and culturing was performed until day 18. On day 18, the culture medium was removed from each well by suction, washed with PBS(−), and fixed with 10% formalin. It was washed 3 times with sterile distilled water. The well after staining with Alizarin Red S was washed with sterile distilled water, and photographed with an inverted microscope at ×40 magnification.

[11] = tested on: human dermal fibroblasts; HDFs; settings: 4 μM in MDI medium; day 14; FIG. 24
Description: MDI medium (3-isobutyl-1-methylxanthine/dexamethasone/insulin-containing medium) is 10% FBS DMEM added with 0.5 mM 3-isobutyl-1-methylxanthine (IBMX), 0.5 μM dexamethasone, and 1 μg/mL Insulin. The culture medium was exchanged with a fresh one every 3-4 days, and culturing was performed until day 14.
On day 14, the culture medium was removed from each well by suction, washed with PBS, and total RNA was extracted from the cell with ISOGEN II. cDNA was synthesized from the RNA by using Rever Tra Ace qPCR RT Master Mix. This cDNA was admixed with Real-time PCR Master Mix, and primers specific to AdipoQ, FABP4 or β-actin gene, and Taqman probe. qRT-PCR was performed using AB7300 Real-time PCR system. The mRNA level of AdipoQ and FABP4 gene was quantified as a ratio to β-actin gene mRNA level, and calculated with the value of fibroblast cultured in MDI medium as 1.

[12] = tested on: human gingival fibroblasts; GFs; settings: 4 μM in calcification induction medium; day 18; FIG. 27
Description: (§3) The calcification induction medium is a 10% FBS DMEM added with 50 μg/ml ascorbic acid, 10 mM β-glycerophosphate and 100 nM Dexamethasone. The culture medium was exchanged with a fresh one every 3-4 days, and culturing was performed until day 18.
On day 18, the culture medium was removed from each well by suction, washed with PBS(−), and fixed with 10% formalin. It was washed 3 times with sterile distilled water. The well after Alizarin Red S staining was washed with sterile distilled water, and photographed with an inverted microscope at ×40 magnification.

[13] = tested on: human gingival fibroblasts; GFs; settings: 4 μM in calcification induction medium; day 18; FIG. 28
Description: as §3
On day 18, the culture medium was removed from each well by suction, washed with PBS(−), and fixed with a fixative. It was washed 3 times with sterile distilled water. The well after ALP staining was washed with sterile distilled water, and photographed with an inverted microscope at ×40 magnification.

[14] = tested on: human peripheral blood mononuclear cells; PBMCs; settings: P-adipocyte induction medium, 4 μM; day 14; FIG. 57
Description: Human normal peripheral blood mononuclear cells (human peripheral blood mononuclear cells; PBMCs) were suspended in Control medium (RPMI1640 medium added with 10% FBS). […] P-adipocyte induction medium (adipocyte induction medium for peripheral blood mononuclear cell) was added to group 2 at 1 mL/well. P-adipocyte induction medium added with ALK5 inhibitor II at a concentration of 4 μM was added to group 3 at 1 mL/well. The P-adipocyte induction medium is RPMI1640 medium added with 10% FBS, 30 U/ml recombinant hIL-2, 1 nM T3, 1 μM Rosiglitazone, 0.5 mM 3-isobutyl-1-methylxanthine (IBMX), 0.5 μM dexamethasone and 1 μg/mL Insulin. Once every 2 days, 50% of the culture medium was exchanged with a fresh one.
On day 14, the culture medium was removed by suction from each well, washed with PBS(−) and total RNA was extracted from the cells by using RNA easy Mini Kit manufactured by Qiagen. cDNA was synthesized from the RNA by using Rever Tra Ace qPCR RT Master Mix. This cDNA was admixed with Real-time PCR Master Mix, primers specific to FABP4 gene or β actin gene and Taqman probe. qRT-PCR was performed using AB7300 Real-time PCR system. The mRNA level of FABP4 gene was quantified as a ratio to 3-actin gene mRNA level, and calculated with the value of human normal peripheral blood mononuclear cell cultured in the general medium as 1.

With `Cc1cccc(-c2n[nH]cc2-c2ccc3ncccc3n2)n1` [ALK5 inhibitor II, 2-(3-(6-Methylpyridin-2-yl)-1H-pyrazol-4-yl)-1,5-naphthyridine] the “conversion of human fibroblast to osteoblast, Osteocalcin and Alkaline Phosphatase mRNA” value [1] was “converted to osteoblast expressing osteocalcin and alkaline phosphatase gene; also recorded: most efficiently converts fibroblast to osteoblast”, the “conversion to osteoblast, Alizarin Red S staining and OD550, fat-derived mesenchymal stem cell” value [2] was “converted to osteoblast having calcified bone matrix production ability” and the “conversion to osteoblast, Alizarin Red S staining and OD550, human fibroblast” value [3] was “converted to osteoblast having calcified bone matrix production ability”. The “conversion of fibroblast to brown adipocytes, CIDEA mRNA” value [4] was “converted fibroblast to brown adipocytes expressing mRNA of CIDEA gene”, the “conversion of fibroblast to brown adipocytes, AdipoQ mRNA” value [5] was “converted fibroblast to brown adipocytes expressing mRNA of AdipoQ gene” and the “mRNA expression of ALP” value [6] was “significantly increased”. For the same molecule, the “mRNA expression of BSP, compared to calcification induction medium” value [6] was “increased”, the “mRNA expression of OC, compared to calcification induction medium” value [6] was “increased” and the “conversion of fibroblast to brown adipocyte, UCP1 mRNA” value ([7]; 4 μM, 8 μM, 12 μM or 16 μM in adipocyte induction medium Day 1 to Day 8, then compound-free to day 14, FIG. 43) was “converted fibroblast to brown adipocyte strongly expressing UCP1 gene; also recorded: most strongly induced”. For the same molecule, the “efficiency in converting fibroblast to brown adipocyte (summary statement)” value ([7]; description, conditions not given) was “highly efficient in converting fibroblast to brown adipocyte”, the “conversion of fibroblast to brown adipocyte, UCP1, CIDEA and KCNK3 mRNA” value [8] was “converted fibroblast to brown adipocyte expressing UCP1 gene, CIDEA gene and KCNK3 gene; also recorded: more strongly induced” and the “conversion of epidermal keratinocyte to urothelial cell, Uroplakin 1b and Uroplakin 3b mRNA” value [9] was “converted human epidermal keratinocyte to urothelial cell expressing Uroplakin 1b gene and Uroplakin 3b gene”. For the same molecule, the “conversion of fibroblast to osteoblast, Alizarin Red S staining” value [10] was “converted human skin-derived fibroblast to osteoblast that produces a large amount of calcified bone matrix”, the “conversion of fibroblast to white adipocyte, AdipoQ and FABP4 mRNA” value [11] was “converted human skin-derived fibroblast to white adipocyte expressing AdipoQ gene and FABP4 gene” and the “conversion of gingival-derived fibroblast to osteoblast, Alizarin Red S staining” value [12] was “converted human gingival-derived fibroblast to osteoblast that produces a large amount of calcified bone matrix”. For the same molecule, the “conversion of gingival-derived fibroblast to osteoblast, ALP staining” value [13] was “converted human gingival-derived fibroblast to osteoblast having high ALP activity” and the “conversion of peripheral blood mononuclear cell to white adipocyte, FABP4 mRNA” value [14] was “converts human normal peripheral blood mononuclear cell to white adipocyte expressing FABP4 gene”.
